From PMC2259182, “Identification of biomarkers for the antiangiogenic and antitumour activity of the superoxide dismutase 1 (SOD1) inhibitor tetrathiomolybdate (ATN-224)” (British Journal of Cancer, 2008)

Biological target: T1, Purified bovine SOD1 (Bos taurus, UniProt P00442)
T1 construct: commercial purified enzyme (Sigma)
Experiment: WST-1 reduction by xanthine oxidase-generated superoxide
Format: biochemical

T1 sequence (P00442 2-152): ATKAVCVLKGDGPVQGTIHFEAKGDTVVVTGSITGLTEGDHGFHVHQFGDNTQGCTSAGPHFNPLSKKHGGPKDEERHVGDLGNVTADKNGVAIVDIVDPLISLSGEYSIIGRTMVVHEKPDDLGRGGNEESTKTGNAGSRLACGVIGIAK

SMILES: [S]=[Mo](=[S])([SH])[SH] [ATN-224]
- IC50: 2.03 µM
